Measurements published in US5929074A, “Pyridazinone derivatives with pharmaceutical activity” (Nissan Chemical Industries, Ltd., priority 1993, dated 1999).
Read-outs that look alike come from different tables or passages of the source.

Experiments:
platelet = assay: Anti-platelet aggregation effect in rabbits (ADP-induced); format: cell-based, rabbit; settings: read-out: IC50 (concentration at which aggregation of control sample was 50% inhibited)
Description: Anti-platelet aggregation effect in rabbits
Blood was collected from the abdominal artery of Japanese white male rabbits (weight: 1.8 to 2.5 kg) into a syringe containing 1/10 volume 3.8% sodium citrate. The blood thus obtained was subjected to a centrifugation at 200×g for 7 minutes at room temperature to obtain platelet rich plasma (PRP). Furthermore, the residue was subjected to a centrifugation at 2000×g for 10 minutes to obtain platelet poor plasma (PPP). The measurement was effected by diluting PRP with PPP to 300,000/mm^3. PRP and PPP were placed in a cuvette, and the measurement range of transmittance was adjusted to 0% in the case of PRP and to 100% in the case of PPP. Thereafter, a test sample drug dissolved in 100% dimethylsulfoxide (DMSO) was added to PRP (the final concentration of DMSO: 0.25%). After incubation was effected at 37° C. at 900 rpm for 2 minutes, an aggregating agent was added to record an aggregation curve. The anti-platelet aggregation effect of the test sample drug was expressed by a concentration (IC50 : μM) at which the aggregation of control sample was 50% inhibited. The aggregating agent ADP was used at the minimum concentration (5 to 10 μM) which caused the maximum aggregation. The measurement of platelet aggregation was carried out by using NBS HEMA TRACER 601.

histamine H1 receptor = target: T1, histamine H1 receptor (Bos taurus, UniProt P30546); assay: Binding test employing 3H-pyrilamine (histamine H1 receptor-binding test); settings: 0.5 h
T1 construct: suspension of bovine cerebellum; from tissue; host or cells: bovine cerebellum
T1 sequence (P30546 whole entry): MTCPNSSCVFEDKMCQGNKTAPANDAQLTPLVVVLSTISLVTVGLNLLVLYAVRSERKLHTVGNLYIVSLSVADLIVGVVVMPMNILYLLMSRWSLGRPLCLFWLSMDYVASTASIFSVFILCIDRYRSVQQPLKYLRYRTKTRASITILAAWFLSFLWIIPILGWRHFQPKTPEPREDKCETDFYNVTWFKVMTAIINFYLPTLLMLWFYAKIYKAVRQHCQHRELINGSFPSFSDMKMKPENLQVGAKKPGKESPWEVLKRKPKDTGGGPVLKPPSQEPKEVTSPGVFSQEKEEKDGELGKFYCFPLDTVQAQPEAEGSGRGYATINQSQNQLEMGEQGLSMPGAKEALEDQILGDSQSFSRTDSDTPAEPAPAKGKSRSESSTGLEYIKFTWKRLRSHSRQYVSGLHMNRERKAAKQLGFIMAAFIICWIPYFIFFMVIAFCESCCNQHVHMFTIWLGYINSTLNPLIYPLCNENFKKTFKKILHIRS
Description: Tritiated pyrilamine was added to a suspension of bovine cerebellum and a 50 mM phosphate buffer solution (pH 7.5), and the mixture was left to stand still at 25° C. for 30 minutes. Then, the mixture was rapidly filtered under suction through a glass fiber filter paper, and the radio activities on the filter paper were measured.

[1] = tested on: anaphylactic bronchoconstriction mediated by endogeneously liberated SRS-A; assay: Effect on anaphylactic bronchoconstriction mediated by endogeneously liberated SRS-A in passively sensitized guinea-pig; format: in vivo; settings: for inhibition in vivo at 30 mg/kg: Cavia porcellus, po, 2 h
Description: Effect on anaphylactic bronchoconstriction mediated by endogeneously liberated SRS-A in passively sensitized guinea-pig
Male guinea-pigs (350-450 g) were passively sensitized with intravenous (i.v.) injection of 0.125 ml rabbit anti-EA (egg albumin) serum (Capple Laboratories) 1 to 2 days preceding the experiment. Antigen-induced anaphylactic bronchoconstrictions mediated by endogeneously liberated SRS-A were measured by modified method of Konzett and Rossler (Arch. Exp. Path. Pharmak., 195, 71, 1940). Sensitized quinea-pigs were anaesthetized with intraperitoneal injection of urethane (1.5 g/kg). The right jugular vein was cannulated for the administration of the all agents and trachea was cannulated to record total pulmonary resistance. Guinea-pigs were artificially ventilated by a small animal respirator (Shinano, Model SN-480-7) set at a stroke volume of 4.5 ml and a rate of 50 breaths per min. The change in pulmonary resistance was measured with a pressure transducer (Nihon Kohden, Model TP-602T) connected to a T-tube on the tracheal cannula. The percentage of the maximum bronchoconstriction obtained by clamping off the trachea. Following surgical preparation, the animals were pretreated with indomethacin (2 mg/kg, 10 min), pyrilamine (2 mg/kg, 6 min) and propranolol (0.1 mg/kg, 5 min) prior to the EA challenge (0.2 mg/kg). All test compounds were administered orally 2 hours before the EA challenge. Inhibition (%) of broncho-constriction was determined as follows: Inhibition (%)=(1.0-% maximum bronchoconstriction in test/% maximum bronchoconstriction in control)×100. The maximum bronchoconstriction was 62±6% (Mean±S.E.M; n=6) and the number of test animals was 5-6.

guinea-pig trachea [2] = assay: Bronchodilating effect in vitro, Method 1-2: relaxation of guinea-pig trachea strips (no LTD4 contraction); format: cell-based; settings: Cavia porcellus, read-out: EC50 (concentration to achieve 50% relaxation relative to relaxation by 1 mM aminophylline)
Description: (§1) A test sample drug was dissolved in 100% dimethylsulfoxide (DMSO, Wako Junyaku) and diluted for use. Leukotriene D4 (LTD4, Ultrafine) and isoproterenol (Isoproterenol, Sigma) were diluted with distilled water. Indomethacin (Indo, Sigma) was dissolved in 100% ethanol (EtOH, Komune Kagaku). Aminophylline (AP, Sigma), histamine dihydrochloride (His, Wako Junyaku) was dissolved in distilled water. The final concentrations of DMSO and EtOH in a bath were made not higher than 0.25% v/v and not higher than 0.1% v/v, respectively. Method 1:1:
(§2) A guinea-pig of 300-450 g was exsanguinated, and the trachea was taken out. After removing fat and connective tissues, it was cut and divided into 2 to 3 spiral strips, each having a width of about 2 mm and containing 4 smooth muscle tissues. Each specimen thus prepared was suspended in an organ bath of 8 ml containing a modified Tyrode solution aerated with 95% O2 +5% CO2 at 37° C., and a load of 1 g was applied thereto. The relaxation of the muscle was recorded by a pen recorder (Yokogawa Hokushin Electric, type 3066) by means of an isotonic transducer (Nihon Kohden, TD-112S).
The same measuring method as method 1-1 was employed. The specimen was allowed to stand for from 60 to 90 minutes and then relaxed by an addition of 1 μM of isopreterenol. The specimen was washed, and this operation was repeated at an interval of from 30 to 40 minutes until a constant relaxation reaction was reached. Then, a test sample drug was accumulately applied to relax the specimen. Finally, 1 mM of AP was added to achieve the maximum relaxation reaction. The result was expressed by relaxation percent relative to the relaxation by AP which was rated 100%, and a concentration to achieve 50% relaxation (EC50, μM) was obtained. The final concentration of DMSO in the bath was adjusted to be 0.2 v/v%. As a control drug, AP was used.

guinea-pig trachea [3] = assay: Bronchodilating effect in vitro, Method 1-1: relaxation of LTD4-contracted guinea-pig trachea strips; format: cell-based; settings: Cavia porcellus, read-out: EC50 (concentration to achieve 50% relaxation relative to relaxation by 1 mM aminophylline)
Description: as §1, §2
The composition of the modified Tyrode solution was as follows (mM):
The specimen was allowed to stand for 50-60 minutes, and was contracted with histamine dihydrochloride (100 μM). After the reaction became constant, it was washed and allowed to stand for 20-30 minutes. Indomethacin (5 μM) was added thereto, and after incubation for 30 minutes, the specimen was contracted by adding LTD4 (30 nM). After the reaction-became stable, a test sample drug was accumulatively administered. Finally, AP (1 mM) was added to achieve the maximum relaxation reaction. The result was expressed by relaxation percent relative to the relaxation by AP which was rated 100%, and a concentration to achieve 50% relaxation (EC50, μM) was measured. As a control drug, AP was used.

[4] = 10 μM, bovine cerebellum, pH 7.5, 25° C., 30 minutes, read-out: Inhibition ratio against H1-receptor
[5] = 30 mg/kg, orally 2 hours before EA challenge
[6] = Method 1-2, trachea conditioned with 1 μM isoproterenol, no LTD4, DMSO 0.2 v/v%
[7] = 30 mg/kg, orally 2 hours before EA challenge, read-out: Inhibition of broncho-constriction
[8] = Method 1-1, LTD4 (30 nM) contracted trachea, indomethacin 5 μM
[9] = Oryctolagus cuniculus, Platelet, rabbit PRP, ADP 5 to 10 μM, 37° C.

Structure (SMILES)	inhibition at 10 µM (histamine H1 receptor; [4]) [%]	EC50 (guinea-pig trachea [3]; [8]) [nM]	EC50 (guinea-pig trachea [2]; [6]) [nM]	inhibition in vivo at 30 mg/kg [1, 7] [%]	IC50 (platelet; [9]) [nM]	further results
COc1ccc(CNc2cn[nH]c(=O)c2Br)cc1OCCN1CCN(Cc2ccc(Cl)cc2)CC1.O=C(O)/C=C/C(=O)O [Compound 8, 4-Bromo-5-[3-{2-(4-(4-chlorobenzyl)-piperazin-1-yl)-ethoxy}-4-methoxybenzylamino]-3(2H)-pyridazinone fumarate]	56.5					IC50 (platelet; rabbit PRP, ADP 5 to 10 μM, 37° C., fumarate): 5500 nM; Inhibition of broncho-constriction [1, 5]: 32%
COc1ccc(CNc2c(Cl)n[nH]c(=O)c2Cl)cc1OCCCN1CCN(Cc2ccccc2)CC1 [Compound 25]	94.4	470		59	5100	
COc1ccc(CNc2c([N+](=O)[O-])n[nH]c(=O)c2Cl)cc1OCCCN1CCN(Cc2ccccc2)CC1 [Compound 24]	89.2	2000	980			
CCOc1n[nH]c(=O)c(Cl)c1NCc1ccc(OC)c(OCC(=O)N2CCN(Cc3ccc4ccccc4n3)CC2)c1 [Compound 67]		170	41	29	400	
COc1ccc(CNc2cn[nH]c(=O)c2Br)cc1OCCN1CCN(Cc2ccc(Cl)cc2)CC1.Cl [Compound 7, 4-Bromo-5-[3-{2-(4-(4-chlorobenzyl)-piperazin-1-yl)-ethoxy}-4-methoxybenzylamino]-3(2H)-pyridazinone hydrochloride]		490			5400	inhibition at 10 µM (histamine H1 receptor; pH 7.5, read-out: Inhibition ratio against H1-receptor, 10 μM, bovine cerebellum, pH 7.5, 25° C., 30 minutes): 56.1%; Inhibition of broncho-constriction [1, 5]: 59%
COc1ccc(CNc2cn[nH]c(=O)c2Cl)cc1OCC(=O)N1CCN(Cc2ccccc2)CC1 [Compound 36]						EC50 (guinea-pig trachea [2]): 240 nM; IC50 (platelet; Oryctolagus cuniculus, Platelet): 1600 nM; inhibition in vivo at 30 mg/kg ([1]; read-out: Inhibition of broncho-constriction, 30 mg/kg, orally 2 hours before EA challenge): 41%; EC50 (guinea-pig trachea [3]): 320 nM
CCOc1n[nH]c(=O)c(Cl)c1NCc1ccc(OC)c(OCC(=O)N2CCN(Cc3ccc(F)cc3)CC2)c1 [Compound 64]		320	61	26	390	
COc1ccc(CNc2c([N+](=O)[O-])n[nH]c(=O)c2Cl)cc1OCCCN1CCN(Cc2ccc(Cl)cc2)CC1 [Compound 29]	93.6					
COc1ccc(CNc2cn[nH]c(=O)c2Cl)cc1OCC(=O)N1CCN(Cc2ccc(F)cc2)CC1 [Compound 39]		160	170	63	1400	

Now from value to molecule, other results behind:

inhibition at 10 µM (histamine H1 receptor; [4]) [%]	EC50 (guinea-pig trachea [3]; [8]) [nM]	Structure (SMILES)	EC50 (guinea-pig trachea [2]; [6]) [nM]	inhibition in vivo at 30 mg/kg [1, 7] [%]	IC50 (platelet; [9]) [nM]	further results
92.6	750	COc1ccc(CNc2cn[nH]c(=O)c2Cl)cc1OCCCN1CCN(Cc2ccc(F)cc2)CC1 [Compound 26]	910	36		
90.5	2600	COc1ccc(CNc2c(Cl)n[nH]c(=O)c2Cl)cc1OCCCN1CCN(Cc2ccc(Cl)cc2)CC1 [Compound 30]				
55.8	3300	CCn1ncc(NCc2ccc(OC)c(OCCN3CCN(Cc4ccc(F)cc4)CC3)c2)c(Cl)c1=O [Compound 17]				
86.6	390	COc1ccc(CNc2cn[nH]c(=O)c2Br)cc1OCCCN1CCN(Cc2ccccc2)CC1 [Compound 22]			2100	
92.2	1300	COc1ccc(CNc2cn[nH]c(=O)c2Cl)cc1OCCCN1CCN(Cc2ccccc2)CC1 [Compound 23]			4600	
